Patent US20260109712A1, “RIFAMYCINS FOR NONTUBERCULOUS MYCOBACTERIA” (priority 2022, published 2026)
≈ marks a conversion by molar mass, not a printed value. Like-named read-outs stand apart in the source and are kept apart here.

Assays:
M. abscessus ATCC 19977 = assay: MIC assay in 96-well plate format, wild-type strain; format: cell-based, Mycobacterium abscessus; details: for MICWT: Table 10; for MIC: Mycobacteroides abscessus, ATCC19977
How it was run: (§1)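 Two-fold, ten-point dilutions in 7H9 with 2% DMSO; mid-log culture diluted to OD600=0.1 (1×10^7 CFU/mL). Incubated 3 days at 37 °C, shaking 110 RPM; growth = Day 3 minus Day 0 OD600, expressed as percentage of drug-free growth and plotted against concentration. Two biological replicates.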

[1] = Plasma protein binding assay (rapid equilibrium dialysis); format: in vitro ADME; details: for fraction unbound at 4 h, 10000 ng/mL / plasma unbound fraction: plasma
How it was run: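 Rapid equilibrium dialysis ran 4 h at 37° C (300 RPM) with compound-spiked plasma (10,000 ng/mL) on one side and PBS on the other. Each side was then mixed 1:1 […] to equalise matrix before LC-MS/MS quantification.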

Mycobacterium abscessus = assay: MIC against Mycobacterium abscessus (strain not given); format: cell-based
Δarr M. abscessus = assay: MIC assay, isogenic arr-deleted strain; format: cell-based, Mycobacterium abscessus; details: Table 10
How it was run: as §1

CYP3A4 = details: human, 10 μM
Experimental: The threshold cycle (CT) was measured for each isoform cDNA by real time qRT-PCR. The mRNA level of each isoform was assessed by the relative quantifiation with reference gene (GAPDH) as the normalizer method. The normalized fold induction was calculated by 2^−ΔΔCT method, in which 0.1% DMSO was used as the reference (vehicle control). The induction potential of each test compound was analyzed by comparing its fold induction to a pre-determined cutoff value for each lot of hepatocytes. The hepatocytes lots used in this study were validated using 10 known inducers and 5 known non-inducers for each isozyme. A cutoff value is determined based on the validation study for each hepatocytes lot.

[2] = Mouse pharmacokinetics studies; format: in vivo, CD-1 mice; details: mouse, in vivo
Experimental: Blood was captured in CB300 blood collection tubes containing K2EDTA and stored on ice. Plasma was recovered after centrifugation and stored at −80° C. until analyzed by high pressure liquid chromatography coupled to tandem mass spectrometry (LC-MS/MS). Pharmacokinetic parameters were calculated using non-compartmental pharmacokinetic analysis. […] Extracts were vortexed for 5 minutes and centrifuged at 4000 RPM for 5 minutes. 75 μL of supernatant was transferred for LC-MS/MS analysis and diluted with 75 μL of Milli-Q deionized water. Rifabutin was purchased from Carbosynth. C25-desacetyl rifabutin and rifabutin-d7 were purchased from Toronto Research Chemical. Verapamil was purchased from Sigma-Aldrich. […] Multiple-reaction monitoring of parent/daughter transitions in electrospray positive-ionization mode was used to quantify all analytes. […] Data processing was performed using Analyst software (version 1.6.2; Applied Biosystems Sciex).

[3] = Mycobacteroides abscessus, 72 h, Table 22, read-out: MICMab
[4] = Table 15, heterocyclic aromatic carbamates, read-out: WT Mab MIC
[5] = Mycobacterium abscessus ATCC 19977, Table 11, read-out: MIC

| SMILES | MICWT (M. abscessus ATCC 19977) [µM] | MIC (Mycobacterium abscessus; [3]) [nM] | MICΔorr (Δarr M. abscessus) [µM] | CYP3A4 gene fold-induction at 10 μM (CYP3A4) | ƒu [1] [%] | plasma unbound fraction [1] [%] | MIC (Mycobacterium abscessus; Table 13, read-out: Mab MIC) [nM] | other results |
| --- | --- | --- | --- | --- | --- | --- | --- | --- |
| CO[C@H]1/C=C/O[C@@]2(C)Oc3c(C)c(O)c4c(c3C2=O)C2=NC3(CCN(CC(C)C)CC3)NC2=C(NC(=O)/C(C)=C/C=C/[C@H](C)[C@H](O)[C@@H](C)[C@@H](O)[C@@H](C)[C@H](OC(=O)c2ccccc2)[C@@H]1C)C4=O [UMN7] | 0.053 | 53 (≈ 0.0482 µg/mL) | 0.059 | 8.6 |  |  |  | fraction unbound at 4 h, 10000 ng/mL [1]: 0.0003 |
| COc1cccc(C(=O)O[C@H]2[C@H](C)[C@H](O)[C@H](C)[C@@H](O)[C@@H](C)/C=C/C=C(\C)C(=O)NC3=C4NC5(CCN(CC(C)C)CC5)N=C4c4c(c(O)c(C)c5c4C(=O)[C@@](C)(O/C=C/[C@H](OC)[C@H]2C)O5)C3=O)c1 [UMN26] | 0.13 |  | 0.13 |  | 0.02 | 0.02 | 130 (≈ 0.122 µg/mL) |  |
| CO[C@H]1/C=C/O[C@@]2(C)Oc3c(C)c(O)c4c(c3C2=O)C2=NC3(CCN(CC(C)C)CC3)NC2=C(NC(=O)/C(C)=C/C=C/[C@H](C)[C@H](O)[C@@H](C)[C@@H](O)[C@@H](C)[C@H](OC(=O)c2cccc(Cl)c2)[C@@H]1C)C4=O [UMN27] | 0.14 |  | 0.13 |  | 0 | 0 | 140 (≈ 0.132 µg/mL) |  |
| CO[C@H]1/C=C/O[C@@]2(C)Oc3c(C)c(O)c4c(c3C2=O)C2=NC3(CCN(CC(C)C)CC3)NC2=C(NC(=O)/C(C)=C/C=C/[C@H](C)[C@H](O)[C@@H](C)[C@@H](O)[C@@H](C)[C@H](OC(=O)c2ccc(-c3ccccc3)cc2)[C@@H]1C)C4=O [UMN28] | 0.85 |  | 1.00 |  | 0 | 0 | 850 (≈ 0.837 µg/mL) |  |
| CO[C@H]1/C=C/O[C@@]2(C)Oc3c(C)c(O)c4c(c3C2=O)C2=NC3(CCN(CC(C)C)CC3)NC2=C(NC(=O)/C(C)=C/C=C/[C@H](C)[C@H](O)[C@@H](C)[C@@H](O)[C@@H](C)[C@H](OC(=O)NC2CC(C)(C)NC(C)(C)C2)[C@@H]1C)C4=O [UMN32] | 0.04 | 40 (≈ 0.0395 µg/mL) | 0.09 | 0.6 |  |  |  | MIC (M. abscessus ATCC 19977; Table 14, carbamate analogs, read-out: WT Mab MIC): 0.04 µM (≈ 0.0395 µg/mL); ƒu ([1]; 4 h, 10000 ng/mL): 6.7%; fraction unbound at 4 h, 10000 ng/mL [1]: 0.067 |
| CO[C@H]1/C=C/O[C@@]2(C)Oc3c(C)c(O)c4c(c3C2=O)C2=NC3(CCN(CC(C)C)CC3)NC2=C(NC(=O)/C(C)=C/C=C/[C@H](C)[C@H](O)[C@@H](C)[C@@H](O)[C@@H](C)[C@H](OC(=O)c2ccncc2)[C@@H]1C)C4=O [UMN47] | 0.017 |  | 0.017 |  | 2.0 | 2.00 | 17 (≈ 0.0155 µg/mL) |  |
| CO[C@H]1/C=C/O[C@@]2(C)Oc3c(C)c(O)c4c(c3C2=O)C2=NC3(CCN(CC(C)C)CC3)NC2=C(NC(=O)/C(C)=C/C=C/[C@H](C)[C@H](O)[C@@H](C)[C@@H](O)[C@@H](C)[C@H](OC(=O)c2ccccn2)[C@@H]1C)C4=O [UMN48] | 0.02 |  | 0.026 |  | 3.0 | 2.95 | 20 (≈ 0.0182 µg/mL) |  |
| CO[C@H]1/C=C/O[C@@]2(C)Oc3c(C)c(O)c4c(c3C2=O)C2=NC3(CCN(CC(C)C)CC3)NC2=C(NC(=O)/C(C)=C/C=C/[C@H](C)[C@H](O)[C@@H](C)[C@@H](O)[C@@H](C)[C@H](OC(=O)c2ccnnc2)[C@@H]1C)C4=O [UMN49] | 0.033 |  | 0.034 |  | 8.2 | 8.22 | 33 (≈ 0.0301 µg/mL) |  |
| CO[C@H]1/C=C/O[C@@]2(C)Oc3c(C)c(O)c4c(c3C2=O)C2=NC3(CCN(CC(C)C)CC3)NC2=C(NC(=O)/C(C)=C/C=C/[C@H](C)[C@H](O)[C@@H](C)[C@@H](O)[C@@H](C)[C@H](OC(=O)c2ccncn2)[C@@H]1C)C4=O [UMN50] | 0.035 |  | 0.036 |  | 7.2 | 7.22 | 35 (≈ 0.0319 µg/mL) |  |
| CO[C@H]1/C=C/O[C@@]2(C)Oc3c(C)c(O)c4c(c3C2=O)C2=NC3(CCN(CC(C)C)CC3)NC2=C(NC(=O)/C(C)=C/C=C/[C@H](C)[C@H](O)[C@@H](C)[C@@H](O)[C@@H](C)[C@H](OC(=O)c2cnccn2)[C@@H]1C)C4=O [UMN51] | 0.03 |  | 0.027 |  | 7.0 | 6.96 | 30 (≈ 0.0273 µg/mL) |  |
| CO[C@H]1/C=C/O[C@@]2(C)Oc3c(C)c(O)c4c(c3C2=O)C2=NC3(CCN(CC(C)C)CC3)NC2=C(NC(=O)/C(C)=C/C=C/[C@H](C)[C@H](O)[C@@H](C)[C@@H](O)[C@@H](C)[C@H](OC(=O)C2CCC2)[C@@H]1C)C4=O [UMN80] | 1.2 |  | 0.026 |  | 0.3 | 0.29 | 1200 (≈ 1.06 µg/mL) |  |
| CO[C@H]1/C=C/O[C@@]2(C)Oc3c(C)c(O)c4c(c3C2=O)C2=NC3(CCN(CC(C)C)CC3)NC2=C(NC(=O)/C(C)=C/C=C/[C@H](C)[C@H](O)[C@@H](C)[C@@H](O)[C@@H](C)[C@H](OC(=O)C2CCCC2)[C@@H]1C)C4=O [UMN81] | 1.2 |  | 0.03 |  | 0.05 | 0.05 | 1200 (≈ 1.08 µg/mL) |  |
| CO[C@H]1/C=C/O[C@@]2(C)Oc3c(C)c(O)c4c(c3C2=O)C2=NC3(CCN(CC(C)C)CC3)NC2=C(NC(=O)/C(C)=C/C=C/[C@H](C)[C@H](O)[C@@H](C)[C@@H](O)[C@@H](C)[C@H](OC(=O)C2CCCCC2)[C@@H]1C)C4=O [UMN82] | 0.54 |  | 0.05 |  | 0.03 | 0.03 | 1100 (≈ 1.01 µg/mL) |  |
| CO[C@H]1/C=C/O[C@@]2(C)Oc3c(C)c(O)c4c(c3C2=O)C2=NC3(CCN(CC(C)C)CC3)NC2=C(NC(=O)/C(C)=C/C=C/[C@H](C)[C@H](O)[C@@H](C)[C@@H](O)[C@@H](C)[C@H](OC(=O)c2cscn2)[C@@H]1C)C4=O [UMN94] |  |  |  |  | 2.9 |  | 36 (≈ 0.033 µg/mL) | CL [2]: 5.0 mL/kg/min; F [2]: 77%; Vd [2]: 1.22 L/kg; ƒAUC/MIC [2]: 22.4; AUCp.o. ([2]; po): 25765 ng·h/mL |
| CO[C@H]1/C=C/O[C@@]2(C)Oc3c(C)c(O)c4c(c3C2=O)C2=NC3(CCN(CC(C)C)CC3)NC2=C(NC(=O)/C(C)=C/C=C/[C@H](C)[C@H](O)[C@@H](C)[C@@H](O)[C@@H](C)[C@H](OC(=O)Nc2ccncn2)[C@@H]1C)C4=O [UMN118] |  | 32 (≈ 0.0296 µg/mL) |  | 2.0 |  |  |  | MIC (M. abscessus ATCC 19977; [4]): 0.032 µM (≈ 0.0296 µg/mL); ƒu ([1]; 4 h, 10000 ng/mL): 5.1% |
| CO[C@H]1/C=C/O[C@@]2(C)Oc3c(C)c(O)c4c(c3C2=O)C2=NC3(CCN(CC(C)C)CC3)NC2=C(NC(=O)/C(C)=C/C=C/[C@H](C)[C@H](O)[C@@H](C)[C@@H](O)[C@@H](C)[C@H](OC(=O)Nc2cccnn2)[C@@H]1C)C4=O [UMN121] |  | 38 (≈ 0.0352 µg/mL) |  | 2.7 |  |  |  | MIC (M. abscessus ATCC 19977; [5]): 0.038 µM (≈ 0.0352 µg/mL) |
| CO[C@H]1/C=C/O[C@@]2(C)Oc3c(C)c(O)c4c(c3C2=O)C2=NC3(CCN(CC(C)C)CC3)NC2=C(NC(=O)/C(C)=C/C=C/[C@H](C)[C@H](O)[C@@H](C)[C@@H](O)[C@@H](C)[C@H](OC(=O)Nc2ccn3nccc3c2)[C@@H]1C)C4=O [UMN123] |  | 51 (≈ 0.0492 µg/mL) |  | 1.2 |  |  |  |  |
| CO[C@H]1/C=C/O[C@@]2(C)Oc3c(C)c(O)c4c(c3C2=O)C2=NC3(CCN(CC(C)C)CC3)NC2=C(NC(=O)/C(C)=C/C=C/[C@H](C)[C@H](O)[C@@H](C)[C@@H](O)[C@@H](C)[C@H](OC(=O)Nc2cccn3ccnc23)[C@@H]1C)C4=O [UMN125] |  | 30 (≈ 0.0289 µg/mL) |  | 3.6 |  |  |  |  |
| CO[C@H]1/C=C/O[C@@]2(C)Oc3c(C)c(O)c4c(c3C2=O)C2=NC3(CCN(CC(C)C)CC3)NC2=C(NC(=O)/C(C)=C/C=C/[C@H](C)[C@H](O)[C@@H](C)[C@@H](O)[C@@H](C)[C@H](OC(=O)Nc2c(C)nc3ccccn23)[C@@H]1C)C4=O [UMN131] |  | 49 (≈ 0.0479 µg/mL) |  | 3.0 |  |  |  | MIC (M. abscessus ATCC 19977; [5]): 0.049 µM (≈ 0.0479 µg/mL) |
| CO[C@H]1/C=C/O[C@@]2(C)Oc3c(C)c(O)c4c(c3C2=O)C2=NC3(CCN(CC(C)C)CC3)NC2=C(NC(=O)/C(C)=C/C=C/[C@H](C)[C@H](O)[C@@H](C)[C@@H](O)[C@@H](C)[C@H](OC(=O)Nc2cscn2)[C@@H]1C)C4=O [UMN132] |  | 26 (≈ 0.0242 µg/mL) |  | 1.4 |  |  |  | MIC (M. abscessus ATCC 19977; [4]): 0.026 µM (≈ 0.0242 µg/mL); ƒu ([1]; 4 h, 10000 ng/mL): 1.7% |
| CO[C@H]1/C=C/O[C@@]2(C)Oc3c(C)c(O)c4c(c3C2=O)C2=NC3(CCN(CC(C)C)CC3)NC2=C(NC(=O)/C(C)=C/C=C/[C@H](C)[C@H](O)[C@@H](C)[C@@H](O)[C@@H](C)[C@H](OC(=O)Nc2cncs2)[C@@H]1C)C4=O [UMN133] |  | 46 (≈ 0.0428 µg/mL) |  | 1.7 |  |  |  | MIC (M. abscessus ATCC 19977; [4]): 0.046 µM (≈ 0.0428 µg/mL); ƒu ([1]; 4 h, 10000 ng/mL): 3.0% |
